# Earlier results, collected in article PMC3470887, “Protegrin-1 Inhibits Dengue NS2B-NS3 Serine Protease and Viral Replication in MK2 Cells” (Journal of Biomedicine and Biotechnology, 2012).
# Settings: mouse, iv; cited from earlier work
smiles,measurement,value
CC(C)C[C@H](NC(=O)[C@H](CCCNC(=N)N)NC(=O)CNC(=O)CNC(=O)[C@@H](N)CCCNC(=N)N)C(=O)N[C@H]1CSSC[C@@H](C(=O)N[C@H](C(=O)NCC(=O)N[C@@H](CCCNC(=N)N)C(N)=O)C(C)C)NC(=O)[C@H](C(C)C)NC(=O)[C@@H]2CSSC[C@H](NC(=O)[C@H](Cc3ccc(O)cc3)NC1=O)C(=O)N[C@@H](CCCNC(=N)N)C(=O)N[C@@H](CCCNC(=N)N)C(=O)N[C@@H](CCCNC(=N)N)C(=O)N[C@@H](Cc1ccccc1)C(=O)N2 [PG-1],dose with low in vivo toxicity,up to 8 mg/kg
